From patent US5736565A, “Therapeutic compounds suitable for the treatment of diseases connected with glutathione deficiency, process for their preparation, and pharmaceutical compositions containing same” (Prospa B.V., priority 1992, dated 1998)
“And” between values parts separate entries of the source, which are not always exact repeats. Identical values can stand only once.

Columns and labels:
hepatic GSH [1] = experiment: Test No. 4: dichloropropane (DCP) intoxication in vivo, hepatic GSH; set-up: species or system rat; details: for normalization of hepatic GSH (in words): DCP-treated rats
Procedure: (§1) A test was carried out in vivo on four groups of four rats each, using, as a toxic substance, dichloropropane (DCP), the main constituent of several solvents. DCP is noxious both by ingestion and inhalation and has a notable toxicity to the liver, mediated by an almost total depletion of thiol groups, including those of GSH.
(§2) The experimental model involves the study of the effect of DCP toxicity in the rat, in respect of glutathione (GSH) concentration in the main target tissue: the liver.
(§3) Tests were carried out on four groups of rats. The first group of animals was administered 2 ml DCP/kg dissolved in oil (40% v/v) per os. Twenty-four hours after DCP administration, blood samples were taken for SGPT measurement, while the animals were sacrificed; small portions of liver were then excised and immediately deproteinized by homogenization in 6% PCA. The chromatographic analyses of GSH and GSSG (oxidized glutathione) were performed.
(§4) The second group of animals was treated with the test drug (600 mg/kg i.p.) two hours after DCP administration. The third and fourth groups were treated with N-acetyl-cysteine (NAC) (250 mg/kg i.p.) and, respectively, with glutathione (Tationil^R) (600 mg/kg i.p.).
An evaluation of the protective action of the test drug in respect of glutathione involvement in hepatic protection mechanisms was thus possible.

DCP toxicity in the rat = experiment: Test No. 4: dichloropropane (DCP) intoxication in vivo, death rate and signs; set-up: key to animal 4, symbol in GSH table: --: dead; details: DCP + 250 mg/kg i.p.
Procedure: as §1, §2, §3, §4

hepatic GSH [2] = experiment: Test No. 1: protection from ethanol acute administration, hepatic GSH content; type: in vivo, male albino Wistar rats; set-up: GSH Content: unit not given beside the values; details: liver; ethanol 3 g/kg i.p.; test substance 50 mg/kg
Procedure: Protection from ethanol acute administration […] Male albino Wistar rats weighing between 180 and 230 g were used. All animals were fasted for 24 hours prior to administration of isotonic solution, ethanol or ethanol combined with the test substances. As concerns the test substances, rats were intraperitoneally (i.p.) injected with compound of formula I (R=CH3) at doses of 10, 30, and 50 mg/kg and, for purposes of comparison, with the single constituents of compound (I) (R=CH3), […] (O-PRO) and L-cysteine (CIS), both at a 50 mg/kg dose. One hour after administration of the test substance, ethanol was injected i.p. at the dose of 3 g/kg. Thirty minutes later, the animals were sacrificed by decapitation and their liver was excised. […] Orwar et al., J. Chromatrogr., 556, 39-55 (1991).

CC(=O)N[C@@H](CS)C(=O)O [NAC, N-acetyl-L-cysteine, reference compound]
normalization of hepatic GSH (in words) (hepatic GSH [1]): could not normalize the values of hepatic GSH | GSH, average values (hepatic GSH [1]; liver, DCP 2 ml/kg per os + 250 mg/kg i.p.): 2.4 nmol/mg protein | GSH, individual animals (hepatic GSH [1]; liver, DCP 2 ml/kg per os + 250 mg/kg i.p., animals 1-3, 250 mg/kg): 2.0 nmol/mg protein and 2.9 nmol/mg protein and 2.3 nmol/mg protein | animal 4, symbol in GSH table (DCP toxicity in the rat): --

N[C@@H](CCC(=O)N[C@@H](CS)C(=O)NCC(=O)O)C(=O)O [GSH, glutathione]
normalization of hepatic GSH (in words) (hepatic GSH [1]): could not normalize the values of hepatic GSH | GSH Content (hepatic GSH [2]): 3.5 ± 0.6

O=C1CC[C@@H](C(=O)O)N1 [O-PRO, 5-oxy-L-proline, reference compound]
GSH Content (hepatic GSH [2]): 3.4 ± 0.3

N[C@@H](CS)C(=O)O [CIS, L-cysteine, reference compound]
GSH Content (hepatic GSH [2]): 2.7 ± 0.3
